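Dose response: 5 concentrations. Exposure: 48 h. Format: 96-well plates. Endpoint: linear interpolation; highest concentration if not reached. At the GI50, growth is halved. TGI: concentration producing complete growth inhibition.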
How the values were obtained:
Test in all cases: inhibition of tumour cell growth, NCI panel, 48 h
[1] = tested on: MDA-MB-231 breast
[2] = tested on: UACC-62 melanoma
[3] = tested on: A549 NSCLC
[4] = tested on: ACHN renal
[5] = tested on: SNB-75 CNS
[6] = tested on: NCI-H460 lung
[7] = tested on: OVCAR-5 ovarian
[8] = tested on: OVCAR-3 ovarian
[9] = tested on: PC-3 prostate
[10] = tested on: M14 melanoma
[11] = tested on: SF-268 CNS

Row | Structure (SMILES) | TGI [1] [µM] | TGI [2] [µM] | TGI [3] [µM] | TGI [4] [µM] | TGI [5] [µM] | TGI [6] [µM] | TGI [7] [µM] | TGI [8] [µM] | TGI [9] [µM] | TGI [10] [µM] | TGI [11] [µM] | GI50 [2] [µM] | GI50 [5] [µM]
1 | c1ccc(C2=Nc3nc4ccccc4n3C(c3ccccc3)C2)cc1 (centres undefined) | > 100 | > 100 | > 100 | > 100 | > 100 | > 100 | > 100 | > 100 | > 100 | > 100 | > 100 | – | –
2 | CCOC(=O)/C(=C\c1ccc(N(C)C)cc1)S(=O)(=O)C(F)(F)C(F)(F)C(F)(F)C(F)(F)F | > 100 | > 100 | > 100 | > 100 | > 100 | > 100 | > 100 | > 100 | > 100 | > 100 | > 100 | – | –
3 | O=c1c(SSc2coc3cc(F)ccc3c2=O)coc2cc(F)ccc12 | 37.1 | 36.1 | > 100 | 26.1 | 33.6 | 98.3 | > 100 | > 100 | 21.5 | – | > 100 | – | –
4 | CC(C)C(C/C=C1\CC(CO)(COC(=O)c2ccccc2)OC1=O)C(C)C (centres undefined) | 44.2 | > 100 | 30.5 | 32 | 29.1 | 43.7 | 28 | 37.7 | 32.5 | 32.8 | 35.5 | – | –
5 | COc1ccc2cc1Oc1ccc(cc1)C(Sc1ccccc1)CCOC(=O)CC2 (centres undefined) | > 100 | > 100 | > 100 | > 100 | > 100 | – | > 100 | > 100 | > 100 | > 100 | > 100 | – | –
6 | Clc1cc2c(c(CSC3=NCN(CC4CC4)CN3)c1)OCOC2 | 48 | 35.3 | 77.6 | 45.6 | 39.6 | 39.6 | 48.9 | > 100 | 65.8 | 27.9 | 98.3 | – | –
7 | Cc1ccc(S(=O)(=O)/N=C(\NN)Nc2ccc(Cl)cc2)cc1 | > 100 | > 100 | > 100 | > 100 | > 100 | > 100 | > 100 | > 100 | > 100 | > 100 | – | – | –
8 | FC(F)(F)c1ccccc1N1CCN(c2nc(-c3cccs3)nc3ccc(Br)cc23)CC1 | 74 | 46.3 | > 100 | > 100 | > 100 | > 100 | > 100 | 76.2 | 49.5 | > 100 | > 100 | – | –
9 | Cc1ccc(OCC2OC(n3cnc4nc(Cl)nc(Cl)c43)CC2Oc2ccc(C)cc2)cc1 (centres undefined) | 6.56 | 20.5 | > 63.3 | 7.9 | 28.5 | 20.2 | 32.1 | 18.9 | 24.5 | 20.5 | 23.4 | – | –
10 | ClC(Cl)(Cl)C1=N[C@H]2[C@H](Br)[C@@H]3O[C@@H](c4ccccc4)[C@H](c4ccccc4)O[C@@H]3[C@H]2O1 | 50.1 | 31.5 | 49.2 | 31.3 | 44 | 30 | 37.5 | 31.9 | 30.4 | 50.3 | 37.2 | – | –
11 | COc1ccc(O[C@H](COCc2ccccc2)C[C@@H]2COC(C)(C)O2)cc1 | > 100 | > 100 | > 100 | > 100 | > 100 | > 100 | > 100 | > 100 | > 100 | > 100 | > 100 | – | –
12 | Cc1c(C(=O)N2CCN(c3ccc([N+](=O)[O-])cc3)CC2)[n+](=O)c2cc(Cl)c(Cl)cc2n1[O-] | 46.7 | 34 | 48.5 | 26.3 | – | 56.7 | 44 | 43.2 | 45 | > 100 | 35.2 | – | –
13 | NC(=O)c1nnc2cc(F)ccc2c1N | > 100 | > 100 | > 100 | > 100 | > 100 | > 100 | > 100 | > 100 | > 100 | > 100 | > 100 | – | –
14 | C=CCOc1ccccc1N=N/C(C#N)=N\Nc1ccccc1OCC=C | > 100 | > 100 | > 100 | > 100 | > 100 | > 100 | > 100 | > 100 | > 100 | > 100 | > 100 | – | –
15 | COC(=O)/C=C(\C)C(=O)N(C)c1ccccc1I | > 100 | > 100 | > 100 | > 100 | > 100 | > 100 | > 100 | > 100 | > 100 | > 100 | > 100 | – | –
16 | Cc1ccnc2[nH]c(-c3cccc(Cl)c3)cc(=O)c12 | 0.0861 | > 100 | > 100 | > 100 | – | > 100 | > 100 | 0.162 | > 100 | > 100 | > 100 | – | –
17 | CCOC(=O)c1c(Br)c(-c2ccc(Br)cc2)c(Br)n1C | 50.1 | > 100 | > 100 | 84.7 | 49.7 | > 100 | 59.7 | 38.7 | 71.1 | 63.3 | 75.9 | 23.6 | 5.3
18 | Cn1c(C(C#N)c2nc(Cl)ncc2Br)nc2ccccc21 (centres undefined) | > 100 | – | > 100 | > 100 | > 100 | > 100 | > 100 | > 100 | – | > 100 | > 100 | – | –
19 | COC(=O)c1cc(NC(=O)c2cc(NC(=O)c3cc([N+](=O)[O-])cn3C)cn2C)cn1C | > 100 | > 100 | > 100 | > 100 | > 100 | > 100 | > 100 | > 100 | > 100 | > 100 | > 100 | – | –

From PubChem BioAssay (NCI)
